{"source": "PubChem BioAssay AID192", "about": "(DTP/NCI, 2004)", "system": "BDF1 mice, B16 melanoma ip, median survival T/C", "experiment": "NCI In Vivo Anticancer Drug Screen. Data for tumor model B16 Melanoma (intraperitoneal) in B6D2F1 (BDF1) mice", "conditions": "endpoint: median survival time, higher = longer survival", "outline": "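Survival or tumor size is measured after treatment of tumor-bearing mice and normalised to the vehicle-treated control group.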", "key": {"[1]": {"conditions": "dose: 12.5 mg/kg/injection, schedule: Q01DX009 (ip), vehicle: Klucel (hydroxypropylcellulose) (HPC)"}, "[2]": {"conditions": "dose: 25.0 mg/kg/injection, schedule: Q01DX009 (ip), vehicle: Klucel (hydroxypropylcellulose) (HPC)"}, "[3]": {"conditions": "dose: 50.0 mg/kg/injection, schedule: Q01DX009 (ip), vehicle: Klucel (hydroxypropylcellulose) (HPC)"}}, "note": "Values joined by “and” are separate entries in the source; they are usually repeats but may differ in a detail not shown here. Equal values may be shown once. Toxic doses and inconclusive results are not listed."}
{"smiles": "COc1ccc(CC2C(=O)NC(C)C(=O)N(C)C3C(=O)N(C)C(Cc4ccc(O)c(c4)Oc4ccc(cc4)C3O)C(=O)NC(C)C(=O)NC(C)C(=O)N2C)cc1", "note": "(centres undefined)", "values": [{"measurement": "T/C", "setting": "dose: 0.5 mg/kg/injection, schedule: Q01DX009 (ip), vehicle: saline with Tween-80", "value": "152 % of control"}, {"measurement": "T/C", "setting": "dose: 125.0 micrograms/kg/injection, schedule: Q01DX009 (ip), vehicle: saline with Tween-80", "value": "118 % of control"}]}
{"smiles": "Cc1cccc(C)c1N.[C-]#[O+].[C-]#[O+].[C-]#[O+].[Cr]", "values": [{"measurement": "T/C", "setting": "dose: 6.25 mg/kg/injection, schedule: Q01DX009 (ip), vehicle: Klucel (hydroxypropylcellulose) (HPC)", "value": "103 % of control"}, {"measurement": "T/C", "setting": "[1]", "value": "100 % of control"}, {"measurement": "T/C", "setting": "[2]", "value": "100 % of control and 112 % of control"}]}
{"smiles": "COc1cc(C(=O)N=Nc2c(O)[nH]c3ccc(Br)cc23)cc(OC)c1OC", "values": [{"measurement": "T/C", "setting": "[2]", "value": "98 % of control"}, {"measurement": "T/C", "setting": "[3]", "value": "109 % of control"}, {"measurement": "T/C", "setting": "dose: 100.0 mg/kg/injection, schedule: Q01DX009 (ip), vehicle: Klucel (hydroxypropylcellulose) (HPC)", "value": "86 % of control"}]}
{"smiles": "CC(C)(C)OC(=O)NC(CCCCNC(=O)OCc1ccccc1)C(=O)O", "note": "(centres undefined)", "values": [{"measurement": "T/C", "setting": "dose: 50.0 mg/kg/injection, schedule: Q01DX009 (ip), vehicle: saline with Tween-80", "value": "107 % of control"}, {"measurement": "T/C", "setting": "dose: 100.0 mg/kg/injection, schedule: Q01DX009 (ip), vehicle: saline with Tween-80", "value": "90 % of control"}]}
{"smiles": "CO[C@H]1/C=C/O[C@@]2(C)Oc3c(C)c(O)c4c(O)c(c(/C=N/N5C(C)CN(Cc6ccccc6)CC5C)c(O)c4c3C2=O)NC(=O)/C(C)=C\\C=C\\[C@H](C)[C@H](O)[C@@H](C)[C@@H](O)[C@@H](C)[C@H](OC(C)=O)[C@@H]1C", "note": "(some centres undefined)", "values": [{"measurement": "T/C", "setting": "dose: 8.0 mg/kg/injection, schedule: Q03HX008 (ip), vehicle: clinical formulation", "value": "94 % of control"}, {"measurement": "T/C", "setting": "dose: 8.0 mg/kg/injection, schedule: Q03HX024 (ip), vehicle: clinical formulation", "value": "88 % of control"}, {"measurement": "T/C", "setting": "dose: 16.0 mg/kg/injection, schedule: Q03HX008 (ip), vehicle: clinical formulation", "value": "90 % of control"}, {"measurement": "T/C", "setting": "dose: 25.0 mg/kg/injection, schedule: Q02DX Z (oral), vehicle: Klucel (hydroxypropylcellulose) (HPC)", "value": "98 % of control"}, {"measurement": "T/C", "setting": "dose: 32.0 mg/kg/injection, schedule: Q03HX024 (ip), vehicle: clinical formulation", "value": "88 % of control"}, {"measurement": "T/C", "setting": "dose: 50.0 mg/kg/injection, schedule: Q01DX009 (ip), vehicle: saline", "value": "123 % of control"}, {"measurement": "T/C", "setting": "dose: 50.0 mg/kg/injection, schedule: Q02DX Z (oral), vehicle: Klucel (hydroxypropylcellulose) (HPC)", "value": "116 % of control"}, {"measurement": "T/C", "setting": "dose: 64.0 mg/kg/injection, schedule: Q04DX005 (ip), vehicle: clinical formulation", "value": "93 % of control"}, {"measurement": "T/C", "setting": "dose: 64.0 mg/kg/injection, schedule: Q08DX003 (ip), vehicle: clinical formulation", "value": "91 % of control"}, {"measurement": "T/C", "setting": "dose: 100.0 mg/kg/injection, schedule: Q02DX Z (oral), vehicle: Klucel (hydroxypropylcellulose) (HPC)", "value": "103 % of control"}, {"measurement": "T/C", "setting": "dose: 200.0 mg/kg/injection, schedule: Q01DX009 (ip), vehicle: saline", "value": "110 % of control"}, {"measurement": "T/C", "setting": "dose: 200.0 mg/kg/injection, schedule: Q02DX Z (oral), vehicle: Klucel (hydroxypropylcellulose) (HPC)", "value": "114 % of control"}, {"measurement": "T/C", "setting": "dose: 256.0 mg/kg/injection, schedule: Q01DX001 (ip), vehicle: clinical formulation", "value": "86 % of control"}, {"measurement": "T/C", "setting": "dose: 400.0 mg/kg/injection, schedule: Q02DX Z (oral), vehicle: Klucel (hydroxypropylcellulose) (HPC)", "value": "88 % of control"}, {"measurement": "T/C", "setting": "dose: 800.0 mg/kg/injection, schedule: Q02DX Z (oral), vehicle: Klucel (hydroxypropylcellulose) (HPC)", "value": "113 % of control"}, {"measurement": "T/C", "setting": "dose: 1600.0 mg/kg/injection, schedule: Q02DX Z (oral), vehicle: Klucel (hydroxypropylcellulose) (HPC)", "value": "97 % of control"}]}
{"smiles": "O=C(NCCCCCCNC(=O)N1CC1)N1CC1", "values": [{"measurement": "T/C", "setting": "dose: 0.3 mg/kg/injection, schedule: Q01DX009 (ip), vehicle: saline", "value": "101 % of control"}, {"measurement": "T/C", "setting": "dose: 0.6 mg/kg/injection, schedule: Q01DX009 (ip), vehicle: saline", "value": "96 % of control"}, {"measurement": "T/C", "setting": "dose: 1.2 mg/kg/injection, schedule: Q01DX009 (ip), vehicle: saline", "value": "103 % of control"}, {"measurement": "T/C", "setting": "dose: 2.4 mg/kg/injection, schedule: Q01DX009 (ip), vehicle: saline", "value": "92 % of control"}, {"measurement": "T/C", "setting": "dose: 4.8 mg/kg/injection, schedule: Q01DX009 (ip), vehicle: saline", "value": "103 % of control"}]}
{"smiles": "COC1=C2CC(C)CC(OC)C(O)C(C)/C=C(\\C)C(OC(N)=O)C(OC)/C=C\\C=C(/C)C(=O)NC(=C(/C=N/N3CCCCC3)C1=O)C2=O", "note": "(centres undefined)", "values": [{"measurement": "T/C", "setting": "dose: 12.5 mg/kg/injection, schedule: Q01DX005 (ip), vehicle: other", "value": "101 % of control"}, {"measurement": "T/C", "setting": "dose: 25.0 mg/kg/injection, schedule: Q01DX005 (ip), vehicle: other", "value": "98 % of control"}, {"measurement": "T/C", "setting": "dose: 50.0 mg/kg/injection, schedule: Q01DX005 (ip), vehicle: other", "value": "97 % of control"}, {"measurement": "T/C", "setting": "dose: 100.0 mg/kg/injection, schedule: Q01DX005 (ip), vehicle: other", "value": "88 % of control"}, {"measurement": "T/C", "setting": "dose: 200.0 mg/kg/injection, schedule: Q01DX005 (ip), vehicle: other", "value": "97 % of control"}]}
{"smiles": "NC1=CC(=O)c2ccccc2C1=O", "values": [{"measurement": "T/C", "setting": "[1]", "value": "96 % of control"}, {"measurement": "T/C", "setting": "[2]", "value": "99 % of control"}, {"measurement": "T/C", "setting": "[3]", "value": "101 % of control"}]}
